Reference: patent publication US20210275511A1, “METHYLPHENIDATE COMPOSITIONS FOR TREATMENT OF ATTENTION DEFICIT HYPERACTIVITY DISORDER” (Ironshore Pharmaceuticals & Development, Inc., priority 2019, published 2021)

System: SKAMP scores in children aged 6-12 with attention deficit hyperactivity disorder (ADHD)
Assay: Population PK/PD model of SKAMP scores (Study HLD200-107, laboratory classroom)
Type: in vivo, human
Details: FIG. 37
From the text: PD data. The clinical data used in this analysis were the SKAMP scores collected in a Phase 3 (HLD200-107 study), multicenter, open-label treatment-optimized, double-blind, randomized, placebo-controlled, forced-withdrawal, parallel group study to evaluate the safety and efficacy of evening dosed HLD200, a novel delayed and extended release formulation (DELEXIS) of methylphenidate hydrochloride, in children aged 6-12 with attention deficit hyperactivity disorder (ADHD) in a laboratory classroom setting.
PK/PD model development. In this study, no MPH samples were collected. Therefore the individual exposure, used in the PK/PD analysis were estimated based on the outcomes of population PK model and on the individual demographic (weight and gender) covariate values.
The model included a parametric description of the trajectories of SKAMP scores for placebo and HLD200 treatments. […]
Examples 10 to 15 relate to PK/PD analysis results. […] In the first step, the individual MPH concentrations were derived using the population PK model previously developed jointly with the individual demographic data and the individual HLD200 dosing history, then the placebo data were modelled, and finally the SKAMP scores were analyzed by fixing the placebo and the PK exposure values previously estimated. […]

## COC(=O)C(c1ccccc1)C1CCCCN1 (stereo not shown) [MPH, methylphenidate]
  Drug concentration required to induce a change from placebo of ~40%: ~15 ng/mL
